# In patent US20220289794A1, “SYNTHETIC ANTIMICROBIAL PEPTIDES” (priority 2019, published 2022):
# Assays:
# [1] = test system: Pseudomonas aeruginosa (ATCC 27883); conditions: P. aeruginosa ATCC 27883
# B. subtilis (ATCC-6633) = test: Broad-spectrum activity against Gram-Positive bacteria (MIC); assay type: cell-based; parameters: unit not given here
# [2] = test system: A. baumannii (ATCC BAA-1605); test: Broad-spectrum activity against Gram-Negative bacteria (MIC); assay type: cell-based; conditions: Table 16, Gram-negative panel
# [3] = test system: P. aeruginosa (ATCC 10145); test: as above; assay type: cell-based; conditions: Table 16, Gram-negative panel
# [4] = test system: Escherichia coli (ATCC 25922); conditions: E. coli ATCC 25922
# S. aureus ATCC 29213 = conditions: S. aureus ATCC 29213
# [5] = test system: Enterococcus faecalis ATCC 29212; conditions: E. faecalis ATCC 29212
# [6] = test system: P. aeruginosa (ATCC BAA-1744); test: Broad-spectrum activity against Gram-Negative bacteria (MIC); assay type: cell-based; conditions: Table 16, Gram-negative panel
# [7] = test system: Klebsiella pneumoniae (ATCC BAA-1705); conditions: Table 16, Gram-negative panel
# [8] = test system: Klebsiella pneumoniae ATCC 13883; conditions: Table 16, Gram-negative panel
# [9] = test system: Enterococcus faecium ATCC 27270; conditions: E. faecium ATCC 27270
# [10] = test system: Streptococcus pneumoniae ATCC 51938; conditions: S. pneumoniae ATCC 51938
# B. cereus (ATCC-13061) = test: Broad-spectrum activity against Gram-Positive bacteria (MIC); assay type: cell-based; parameters: unit not given here
# [11] = test system: Methicillin-resistant Staphylococcus aureus MRSA (ATCC BAA-1556); conditions: MRSA ATCC BAA-1556
# [12] = test system: Enterococcus faecium ATCC 700221; conditions: E. faecium ATCC 700221
# [13] = test system: Enterococcus faecalis ATCC 51575; conditions: E. faecalis ATCC 51575
# E. coli (ATCC BAA-2452) = test: Broad-spectrum activity against Gram-Negative bacteria (MIC); assay type: cell-based; conditions: Table 16, Gram-negative panel
# [14] = test system: Streptococcus pneumoniae ATCC 49619; conditions: S. pneumoniae ATCC 49619
Substance,MIC P. aeruginosa ATCC 27883 [1] [µg/mL],Broad-spectrum activity B. subtilis (ATCC-6633) (B. subtilis (ATCC-6633)),MIC A. baumannii (ATCC BAA-1605) [2] [µg/mL],MIC P. aeruginosa (ATCC 10145) [3] [µg/mL],MIC E. coli ATCC 25922 [4] [µg/mL],MIC S. aureus ATCC 29213 (S. aureus ATCC 29213) [µg/mL],Broad-spectrum activity E. faecalis (ATCC 29212) [5],MIC P. aeruginosa (ATCC BAA-1744) [6] [µg/mL],MIC K. pneumonia (ATCC BAA-1705) [7] [µg/mL],MIC K. pneumonia (ATCC 13883) [8] [µg/mL],Broad-spectrum activity E. faecium (ATCC 27270) [9],Broad-spectrum activity S. pneumoniae (ATCC 51938) [10],Broad-spectrum activity B. cereus (ATCC-13061) (B. cereus (ATCC-13061)),MIC MRSA ATCC BAA-1556 [11] [µg/mL],Broad-spectrum activity E. faecium (ATCC 700221) [12],Broad-spectrum activity E. faecalis (ATCC 51575) [13],MIC E. coli (ATCC BAA-2452) (E. coli (ATCC BAA-2452)) [µg/mL],Broad-spectrum activity S. pneumoniae (ATCC 49619) [14]
c[Arg-Arg-arg-arg-NaI-trp-NaI] [IFX-139],32,1.5,12.5,50,32,3.1,6.2,50,25,> 50,3.1,12.5,3.1,3.1,6.2,6.2,25,25
c[Arg-Arg-Arg-Arg-dip-Trp-Dip] [IFX-090],12.5,1.5,12.5,25,12.5,3.1,6.2,25,25,50,3.1,12.5,6.2,3.1,6.2,12.5,12.5,25
c[arg-arg-Arg-Arg-naI-trp-naI] [IFX-138],32,3.1,25,50,16,1.5,6.2,50,50,50,3.1,25,6.2,3.1,6.2,6.2,12.5,50
c[Arg-Arg-arg-Arg-Dip-Dip-Dip] [IFX-064],12.5,1.5,6.2,25,12.5,3.1,6.2,25,12.5,50,3.1,25,3.1,3.1,1.5,12.5,6.2,50
c[arg-arg-arg-arg-Dip-Trp-Dip] [IFX-099],12.5,1.5,12.5,25,6.2,1.5,6.2,25,25,50,3.1,12.5,3.1,1.5,6.2,12.5,25,25
